We go through 24 molecules from ChEMBL document CHEMBL1201862, “PubChem BioAssay data set” (2004).

Some test systems named below: DLD-1; DMS-273; HOP-18; KM-20L2; LXFL 529; M19-MEL; RXF 631; SNB-78; XF498.
What all share (assay): inhibition of tumour cell growth, NCI panel, 48 h

The structures appear in SMILES notation.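 Cells were grown in 96-well plates and exposed to each compound for 48 hours at five concentrations; endpoints were interpolated linearly between bracketing concentrations, or set to the highest concentration if not reached. Abbreviation: GI50, concentration required for 50% inhibition of growth.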 Calls of active or inactive are those of the source. No stated cut-off is given here; in the data, active = GI50 up to about 1.1 µM and inactive = higher.

For the molecule `CCOC(=O)C1=C(NC(C)(C)C)OC/C1=N\NC(=O)Cc1ccccc1`, the GI50 with DLD-1, with DMS-273, in the test on HOP-18, in the test on KM-20L2, in the test with LXFL 529 and with M19-MEL was > 100 µM (inactive) each time. Also, the GI50 in the test with RXF 631, with SNB-78 and with XF498 was > 100 µM (inactive) in each case.

Consider `O=C(NCc1ccc2ccc3cccnc3c2n1)c1ccc[n+](Cc2ccccc2)c1`, for which the GI50 was > 100 µM (inactive) in the test on DLD-1; > 100 µM (inactive) with DMS-273; > 100 µM (inactive) with HOP-18; > 100 µM (inactive) with KM-20L2; 67.6 µM (inactive) in the test with LXFL 529; 60.8 µM (inactive) in the test on M19-MEL. For the same molecule, the GI50 with RXF 631 and in the test with XF498 was > 100 µM (inactive) in each case.

As to `Cn1cc2ccccc2c1-c1nc(F)nc(Oc2ccc3c(c2)CC[C@@H]2C3CC[C@@]3(C)C2C[C@H](O)[C@@H]3O)n1` (stereo partly drawn), the GI50 with DLD-1 is 10.3 µM (inactive); with DMS-273, 10.3 µM (inactive); in the test on HOP-18, 22.3 µM (inactive); in the test with KM-20L2, 15.8 µM (inactive); in the test on LXFL 529, 13.8 µM (inactive); with M19-MEL it was 16.9 µM (inactive). Also, the GI50 in the test with SNB-78 is 19.6 µM (inactive); with XF498, 22.4 µM (inactive).

Consider `CCOC(=O)CC(NCc1ccc(/N=C/c2nc3ccc(C(F)(F)F)cc3nc2-c2ccccc2)cc1)C(=O)OCC` (stereo not drawn), for which the GI50 in the test with DLD-1 is > 100 µM (inactive); with DMS-273, > 64.1 µM (inactive); with HOP-18 it was 24.7 µM (inactive); in the test on KM-20L2 it was > 54.7 µM (inactive); in the test with LXFL 529, > 100 µM (inactive); in the test on M19-MEL it was > 100 µM (inactive). Further, the GI50 in the test with SNB-78 is > 72.1 µM (inactive); in the test with XF498, 14.2 µM (inactive).

With `NC(=O)c1ccccc1NC(=O)C(=O)Cc1nc2ccccc2nc1O`, the GI50 with DLD-1, in the test on DMS-273, with KM-20L2, in the test on LXFL 529, with M19-MEL and with RXF 631 was > 100 µM (inactive) each time.

For `COc1ccccc1OCc1nnc(SCC(=O)O)n1-c1ccccc1`, the GI50 with DLD-1, in the test on DMS-273, in the test with KM-20L2, in the test on LXFL 529, with SNB-78 and with XF498 was > 100 µM (inactive) each time.

With `COc1cccc(C2=NC(C(C)C)CO2)c1OC` (stereo not drawn), the GI50 with DLD-1, in the test on DMS-273, in the test on KM-20L2, in the test on LXFL 529, in the test on M19-MEL and in the test with SNB-78 was > 100 µM (inactive) each time. Also, the GI50 in the test on XF498 is > 100 µM (inactive).

As to `COc1ccc2nc3ccccc3c(NCCCCN(C)CCCl)c2c1`, the GI50 is 0.0471 µM (active) with DLD-1; 0.0218 µM (active) with DMS-273; 0.0277 µM (active) in the test with KM-20L2; < 0.013 µM (active) with LXFL 529; < 0.0185 µM (active) in the test on RXF 631; 0.0596 µM (active) with SNB-78. Moreover, the GI50 in the test with XF498 is 0.0369 µM (active).

Regarding `COC(=O)C(=O)C(C(=O)C(=O)Nc1cccc(C(C)=O)c1)c1nc2ccc([N+](=O)[O-])cc2nc1O` (stereo not drawn), the GI50 in the test with DLD-1, in the test with DMS-273, in the test with HOP-18, with KM-20L2, with LXFL 529 and with RXF 631 was > 100 µM (inactive) in each case. Moreover, the GI50 with SNB-78 and in the test on XF498 was > 100 µM (inactive) each time.

Consider `COC(=O)[C@H]1C2CC[C@@H]3C45C[C@@H](c6ccoc6)O[C@@H]4O[C@@H](O2)C31CCC5C` (stereo partly drawn), for which the GI50 is > 100 µM (inactive) with DLD-1; > 100 µM (inactive) in the test with DMS-273; > 100 µM (inactive) in the test with HOP-18; > 100 µM (inactive) in the test with KM-20L2; 57.7 µM (inactive) with LXFL 529; 25.7 µM (inactive) with SNB-78. Moreover, in the test with XF498, the GI50 is > 100 µM (inactive).

Consider `C[N+](C)(C)CC(=O)N/N=C(\C(=O)NC1=C(Cl)C(=O)c2ccccc2C1=O)C(C#N)c1csc(-c2ccc([N+](=O)[O-])cc2)n1` (stereo not drawn), for which the GI50 with DLD-1, with DMS-273, with HOP-18, in the test on KM-20L2, with LXFL 529 and with M19-MEL was > 100 µM (inactive) throughout. Besides, the GI50 in the test with RXF 631, with SNB-78 and with XF498 was > 100 µM (inactive) throughout.

Take `O=C(Nc1ccc(C(F)(F)F)cc1[N+](=O)[O-])C(=O)C1NC(=S)NC1=O` (stereo not drawn): the GI50 with DLD-1, in the test on DMS-273, in the test with HOP-18, in the test with KM-20L2, with LXFL 529 and with M19-MEL was > 100 µM (inactive) in each case. Moreover, the GI50 with RXF 631 was 82.2 µM (inactive); in the test on SNB-78 it was > 100 µM (inactive).

On to `C=CCCCCCCCC(O)C1C[C@H](O)C(CCCCC)O1` (stereo partly drawn), for which the GI50 was 17.3 µM (inactive) with DLD-1; 18.1 µM (inactive) in the test with DMS-273; 17.9 µM (inactive) in the test with HOP-18; 15.5 µM (inactive) in the test with LXFL 529; 19.1 µM (inactive) in the test with M19-MEL; 20 µM (inactive) with SNB-78.

Consider `CN/N=C(/CC(=O)c1sc(NNC(C)=O)nc1C)C(=O)Nc1ccc(OC)cc1OC`, for which the GI50 with DLD-1, in the test on DMS-273, in the test with KM-20L2, with LXFL 529, in the test with M19-MEL and with SNB-78 was > 100 µM (inactive) each time. Moreover, the GI50 in the test on XF498 is > 100 µM (inactive).

As for `Cc1ccc(C(O)/C(=N/N)c2nc3ccc([N+](=O)[O-])cc3nc2O)cc1` (stereo not drawn), the GI50 is > 100 µM (inactive) in the test with DLD-1; 83.4 µM (inactive) in the test with DMS-273; 57.5 µM (inactive) in the test on KM-20L2; 67 µM (inactive) in the test on LXFL 529; > 100 µM (inactive) in the test with M19-MEL; > 100 µM (inactive) in the test on SNB-78. In addition, the GI50 with XF498 was 95.5 µM (inactive).

For `CC(C)C(NCc1c2ccccc2[n+]([O-])c2ccccc12)C(=O)O` (stereo not drawn), the GI50 is 36.4 µM (inactive) with DLD-1; 38.9 µM (inactive) with DMS-273; 14.5 µM (inactive) with HOP-18; 43.8 µM (inactive) with KM-20L2; 35.1 µM (inactive) in the test on LXFL 529; 68.2 µM (inactive) in the test with SNB-78.

Consider `C[C@H]1CCC/C=C/[C@@H]2C[C@H](O)C[C@H]2[C@H](O)/C=C/C(=O)O1` [BREFELDIN A], for which the GI50 in the test on DLD-1 is 0.0134 µM (active); with DMS-273, 0.0266 µM (active); in the test with HOP-18, 2.81 µM (inactive); in the test with KM-20L2 it was 0.0041 µM (active); in the test with LXFL 529 it was 0.00877 µM (active); with RXF 631 it was 0.101 µM (active). For the same molecule, the results for the GI50 in the test with SNB-78 and in the test on XF498 were 0.00675 µM (active) and 0.00649 µM (active), respectively.

Consider `COc1cc([C@@H]2OC(=O)C3C2C(=O)O[C@H]3c2ccc(O)c(OC)c2)ccc1O` (stereo partly drawn), for which the GI50 in the test on DLD-1, in the test on DMS-273, with HOP-18, in the test on KM-20L2, in the test with LXFL 529 and with M19-MEL was > 100 µM (inactive) in each case. In addition, the GI50 with RXF 631 and with SNB-78 was > 100 µM (inactive) throughout.

Consider `COc1cc2c(c(OC)c1OC)-c1ccc(SC)c(=O)cc1[C@@H](NC(=O)C(F)(F)F)CC2`, for which the GI50 in the test on DLD-1 was < 0.01 µM (active); in the test with DMS-273 it was < 0.01 µM (active); in the test with HOP-18 it was 26.5 µM (inactive); in the test on KM-20L2, < 0.01 µM (active); with LXFL 529, < 0.01 µM (active); in the test on XF498, 0.0585 µM (active).

Turning to `CN(/N=C/c1ccnc2ccccc12)c1c([N+](=O)[O-])cc([N+](=O)[O-])cc1[N+](=O)[O-]`, the GI50 in the test on DLD-1 was 37.4 µM (inactive); with DMS-273, > 100 µM (inactive); in the test with HOP-18, > 100 µM (inactive); in the test on KM-20L2, > 100 µM (inactive); with LXFL 529, 48.4 µM (inactive); in the test on M19-MEL, > 100 µM (inactive). Also, the GI50 is 67.3 µM (inactive) in the test with SNB-78 and 70.1 µM (inactive) in the test on XF498.

As for `COC(=O)/C=C(C)/C=C/c1cc(C(C)=O)c(C)o1`, the GI50 was 43.8 µM (inactive) in the test with DLD-1; 46.9 µM (inactive) in the test on HOP-18; > 100 µM (inactive) with KM-20L2; 93.1 µM (inactive) in the test with LXFL 529; > 100 µM (inactive) with SNB-78; > 100 µM (inactive) with XF498.

With `O=C1c2ccc3c4ccccc4n(Cc4ccccc4)c3c2C(=O)N1c1ccccc1`, the GI50 was 17 µM (inactive) with DLD-1; 12.4 µM (inactive) with DMS-273; 12.1 µM (inactive) in the test on HOP-18; 20.9 µM (inactive) in the test with KM-20L2; 14.3 µM (inactive) in the test with LXFL 529; 17.3 µM (inactive) in the test on M19-MEL. Besides, the GI50 is 14.5 µM (inactive) with RXF 631 and 27.7 µM (inactive) in the test with SNB-78.

In the case of `C/C(COc1ccccc1)=N\NC(N)=S`, the GI50 is > 100 µM (inactive) in the test on DLD-1; > 100 µM (inactive) in the test on DMS-273; > 100 µM (inactive) with KM-20L2; 44.5 µM (inactive) with LXFL 529; > 100 µM (inactive) in the test on M19-MEL; > 100 µM (inactive) in the test with SNB-78. Moreover, the GI50 with XF498 is 53.5 µM (inactive).

Regarding `O=C(O)/C(=C/C=C/c1ccccc1)c1csc(-c2nc(/C(=C\C=C\c3ccccc3)C(=O)O)cs2)n1`, the GI50 in the test with DLD-1 was 12.6 µM (inactive); in the test with KM-20L2, 35.8 µM (inactive); with LXFL 529 it was 24.7 µM (inactive); with M19-MEL it was 31.1 µM (inactive); in the test on SNB-78 it was 27.2 µM (inactive).
